Measured values taken from the supplement of paper PMC6045584.
± gives the standard deviation of the averaged measurements.

Experiments:
RESVERATROL = compound: Oc1ccc(/C=C/c2cc(O)cc(O)c2)cc1 [RESVERATROL]; test: surviving fraction relative to DMSO-only wells; higher = less growth inhibition; conditions: exposure time: 5 days
How it was run: (§1)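 At 250–500 cells per well in 384-well plates, log-phase tumour cell lines were seeded and, 24 hours on, exposed continuously for five days to inhibitors at 0.5, 1, 5, 10, 50, 100, 500 and 1000 nM. Viability readout was CellTiter-Glo luminescence, reported as surviving fraction normalised to the median of DMSO-only wells.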

NUTLIN3 = compound: COc1ccc(C2=N[C@@H](c3ccc(Cl)cc3)[C@@H](c3ccc(Cl)cc3)N2C(=O)N2CCNC(=O)C2)c(OC(C)C)c1 [NUTLIN3]; test: as above; conditions: exposure time: 5 days
How it was run: as §1

Test System | surviving fraction (RESVERATROL; 0.5 nM) | surviving fraction (RESVERATROL; 1 nM) | surviving fraction (RESVERATROL; 5 nM) | surviving fraction (RESVERATROL; 10 nM) | surviving fraction (RESVERATROL; 50 nM) | surviving fraction (RESVERATROL; 100 nM) | surviving fraction (RESVERATROL; 500 nM) | surviving fraction (RESVERATROL; 1000 nM) | surviving fraction (NUTLIN3; 0.5 nM) | surviving fraction (NUTLIN3; 1 nM) | surviving fraction (NUTLIN3; 5 nM) | surviving fraction (NUTLIN3; 10 nM) | surviving fraction (NUTLIN3; 50 nM) | surviving fraction (NUTLIN3; 100 nM) | surviving fraction (NUTLIN3; 500 nM) | surviving fraction (NUTLIN3; 1000 nM)
HELA CERVIX | 1.04 ± 0.034 | 1.12 ± 0.036 | 1.06 ± 0.096 | 1.08 ± 0.023 | 1.09 ± 0.066 | 1.12 ± 0.037 | 1.12 ± 0.092 | 1.21 ± 0.066 | 1.01 ± 0.092 | 1 ± 0.039 | 1 ± 0.025 | 0.984 ± 0.043 | 1.06 ± 0.044 | 1.07 ± 0.041 | 1.08 ± 0.03 | 1.13 ± 0.039
HOS BONE | 1.016 ± 0.0053 | 1.05 ± 0.03 | 1.018 ± 0.009 | 1.02 ± 0.021 | 1.03 ± 0.012 | 1.06 ± 0.036 | 1.05 ± 0.024 | 1.07 ± 0.025 | 1.011 ± 0.0078 | 1.03 ± 0.014 | 1.008 ± 0.01 | 0.994 ± 0.02 | 1.06 ± 0.02 | 1.05 ± 0.01 | 1.057 ± 0.0091 | 1.09 ± 0.021
HOSMNG BONE | 0.83 ± 0.15 | 0.872 ± 0.023 | 0.832 ± 0.1 | 0.722 ± 0.061 | 0.827 ± 0.11 | 0.877 ± 0.11 | 0.878 ± 0.072 | 0.924 ± 0.1 | 1.04 ± 0.056 | 1.03 ± 0.033 | 0.979 ± 0.098 | 0.975 ± 0.076 | 1.09 ± 0.025 | 1.12 ± 0.013 | 1.12 ± 0.026 | 1.13 ± 0.023
HSSYII SYNOVIAL | 0.951 ± 0.067 | 1.01 ± 0.029 | 1.01 ± 0.015 | 0.995 ± 0.016 | 0.967 ± 0.04 | 0.971 ± 0.079 | 0.9 ± 0.03 | 0.917 ± 0.043 | 0.951 ± 0.02 | 0.904 ± 0.051 | 0.976 ± 0.041 | 0.9313 ± 0.0089 | 0.942 ± 0.053 | 0.91 ± 0.035 | 0.676 ± 0.058 | 0.43 ± 0.04
HT1080 SOFT TISSUE | 1.03 ± 0.031 | 1.03 ± 0.019 | 0.995 ± 0.024 | 1.04 ± 0.033 | 0.984 ± 0.017 | 1.03 ± 0.03 | 1.05 ± 0.013 | 1.1 ± 0.015 | 1.02 ± 0.019 | 0.978 ± 0.031 | 0.998 ± 0.012 | 1.02 ± 0.018 | 0.9757 ± 0.0085 | 0.929 ± 0.01 | 0.797 ± 0.024 | 0.58 ± 0.046
HU09 BONE | 0.972 ± 0.079 | 1.08 ± 0.1 | 1.13 ± 0.1 | 1.07 ± 0.077 | 1.11 ± 0.15 | 1.1 ± 0.079 | 1.05 ± 0.12 | 1.06 ± 0.038 | 1.03 ± 0.17 | 0.933 ± 0.1 | 1.02 ± 0.14 | 1.03 ± 0.059 | 1.04 ± 0.069 | 1.08 ± 0.11 | 1.04 ± 0.14 | 1.03 ± 0.085
HUO3N1 BONE | 1.01 ± 0.036 | 1.07 ± 0.037 | 1.04 ± 0.034 | 1.06 ± 0.06 | 1.09 ± 0.035 | 1.1 ± 0.037 | 1.07 ± 0.029 | 1.01 ± 0.067 | 1.07 ± 0.046 | 0.988 ± 0.032 | 1.039 ± 0.0087 | 1 ± 0.034 | 1.09 ± 0.032 | 1.03 ± 0.032 | 1.01 ± 0.068 | 1.04 ± 0.033
JIMT1 BREAST | 1.03 ± 0.038 | 1.04 ± 0.042 | 1.05 ± 0.047 | 1.01 ± 0.029 | 1.01 ± 0.016 | 1.05 ± 0.027 | 1 ± 0.035 | 1.05 ± 0.021 | 0.985 ± 0.011 | 0.976 ± 0.018 | 1.01 ± 0.037 | 0.9965 ± 0.0076 | 1.08 ± 0.037 | 1.06 ± 0.016 | 1.06 ± 0.043 | 1.04 ± 0.018
